According to patent publication US9725459B2, “3-oxo-tetrahydro-furo[3,2-B]pyrrol-4(5H)-yl) derivatives I” (GRÜNENTHAL GMBH, priority 2014, dated 2017):
pKi: −log10 of the molar value.

How the values were obtained:
Assay type in all cases: biochemical
human cathepsin L (CatL) = human cathepsin L (CatL) (Homo sapiens (Human), UniProt P07711); assay: CatL functional enzyme assay; conditions: read-out: hCatL, inhibition [%] at 31.6 μM
Method: (§1) Reference and test compounds were assayed for inhibitory potency (IC50) against human cathepsins using the following assay setups:
(§2) Recombinant human cathepsins (CatS, CatK, CatL) were purchased from a Enzo Life Sciences. All assays were carried out in 96-well format using a buffer of 50 mM KH2PO4, 50 mM NaCl, 2 mM EDTA, 0.5 mM DTT and 1% Triton-X-100, pH 6.5 for Cathepsin S and a buffer of 50 mM NaOAc, 10 mM EDTA, 1 mM DTT and 0.01% Triton-X-100, pH 5.5 for CatK/L/B. For CatS, the enzyme (0.0007 mU/well) was incubated with fluorogeninc substrate (Z-VVR-AMC, 5 μM) at RT for 10 min. For CatK the enzyme (0.00175 mU/well) was incubated with fluorogeninc substrate (Z-FR-AMC, 40 μM) at RT for 10 min. For CatL, the enzyme (0.000874 mU/well) was incubated with fluorogeninc substrate (Z-VVR-AMC, 40 μM) at RT for 10 min. Flourogenic substrate turnover was detected using a microplate reader (Synergy™ H4, BioTek). Ki values were calculated using the Cheng Prusoff equation (Cheng & Prosoff 1973).

human cathepsin K (CatK) = human cathepsin K (CatK) (Homo sapiens (Human), UniProt P43235); assay: CatK functional enzyme assay; conditions: for pKi: recombinant human CatK, substrate Z-FR-AMC 40 μM, pH 5.5, Ki by Cheng Prusoff equation, read-out: hCatK, Ki
Method: as §1, §2

human cathepsin S (CatS) = human cathepsin S (CatS) (Homo sapiens (Human), UniProt P25774); assay: CatS functional enzyme assay; conditions: for Selectivity Ki(hCatS)/Ki(hCatK): ratio Ki(hCatS)/Ki(hCatK); for pKi: recombinant human CatS, substrate Z-VVR-AMC 5 μM, pH 6.5, Ki by Cheng Prusoff equation, read-out: hCatS, Ki; for inhibition at 10 µM: read-out: hCatS, inhibition [%] at 10 μM
Method: as §2, with “Reference and test compounds were assayed for inhibitory potency (IC50) against human cathepsins using the following assay setups: Recombinant” for “Recombinant”, “All assays were carried out in 96-well format using a buffer of 50 mM KH2PO4, 50 mM NaCl, 2 mM EDTA, 0.5 mM DTT and 1% Triton-X-100, pH 6.5 for Cathepsin S and a buffer of 50 mM NaOAc, 10 mM EDTA, 1 mM DTT and 0.01% Triton-X-100, pH 5.5 for CatK/L/B.” left out

human cathepsin S (CatS), sequence (P25774 115-331): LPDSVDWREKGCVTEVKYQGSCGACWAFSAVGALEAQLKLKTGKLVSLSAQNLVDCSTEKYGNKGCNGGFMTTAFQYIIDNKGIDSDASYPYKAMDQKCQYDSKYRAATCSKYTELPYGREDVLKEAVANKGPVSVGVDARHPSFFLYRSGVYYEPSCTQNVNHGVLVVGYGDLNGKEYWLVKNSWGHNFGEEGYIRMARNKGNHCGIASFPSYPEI
human cathepsin K (CatK), sequence (P43235 115-329): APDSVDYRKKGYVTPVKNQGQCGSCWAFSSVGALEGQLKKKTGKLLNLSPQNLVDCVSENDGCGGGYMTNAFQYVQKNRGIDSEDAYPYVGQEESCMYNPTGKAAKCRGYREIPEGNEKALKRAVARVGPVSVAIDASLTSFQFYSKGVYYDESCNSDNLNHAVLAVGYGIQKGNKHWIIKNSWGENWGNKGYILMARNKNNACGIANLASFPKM
human cathepsin L (CatL), sequence (P07711 114-333): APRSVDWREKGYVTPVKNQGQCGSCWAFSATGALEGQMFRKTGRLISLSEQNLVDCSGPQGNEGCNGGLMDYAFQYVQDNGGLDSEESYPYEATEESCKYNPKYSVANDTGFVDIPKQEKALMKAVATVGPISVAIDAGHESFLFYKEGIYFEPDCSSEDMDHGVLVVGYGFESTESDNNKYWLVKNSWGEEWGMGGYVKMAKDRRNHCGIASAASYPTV

Structure (SMILES): O=C(N[C@H](C(=O)N1C[C@H](Cl)[C@H]2OCC(=O)[C@H]21)C1CCCCC1)c1ccc(-c2ccc(Cl)nc2)s1 [Example 17, N-((S)-2-((3aS,6S,6aS)-6-chloro-3-oxotetrahydro-2H-furo[3,2-b]pyrrol-4(5H)-yl)-1-cyclohexyl-2-oxoethyl)-5-(6-chloropyridin-3-yl)thiophene-2-carboxamide]
- inhibition at 31.6 µM (human cathepsin L (CatL)): 9%
- pKi (human cathepsin K (CatK)): 7.80
- Selectivity Ki(hCatS)/Ki(hCatK) (human cathepsin S (CatS)): 21.7
- pKi (human cathepsin S (CatS)): 6.46

Structure (SMILES): O=C(N[C@H](C(=O)N1C[C@H](Cl)[C@H]2OCC(=O)[C@H]21)C1CCCCC1)c1ncc(-c2ccnnc2)s1 [Example 18, N-((S)-2-((3aS,6S,6aS)-6-chloro-3-oxotetrahydro-2H-furo[3,2-b]pyrrol-4(5H)-yl)-1-cyclohexyl-2-oxoethyl)-5-(pyridazin-4-yl)thiazole-2-carboxamide]
- inhibition at 31.6 µM (human cathepsin L (CatL)): 15%
- pKi (human cathepsin K (CatK)): 7.51
- Selectivity Ki(hCatS)/Ki(hCatK) (human cathepsin S (CatS)): 1.2
- pKi (human cathepsin S (CatS)): 7.43

Structure (SMILES): O=C(N[C@H](C(=O)N1C[C@H](Cl)[C@H]2OCC(=O)[C@H]21)C1CCCCC1)c1ccc(-c2ccnnc2)o1 [Example 19, N-((S)-2-((3aS,6S,6aS)-6-chloro-3-oxotetrahydro-2H-furo[3,2-b]pyrrol-4(5H)-yl)-1-cyclohexyl-2-oxoethyl)-5-(pyridazin-4-yl)furan-2-carboxamide]
- inhibition at 31.6 µM (human cathepsin L (CatL)): 12%
- pKi (human cathepsin K (CatK)): 7.03
- Selectivity Ki(hCatS)/Ki(hCatK) (human cathepsin S (CatS)): 0.8
- pKi (human cathepsin S (CatS)): 7.13

Structure (SMILES): O=C(N[C@H](C(=O)N1C[C@H](Cl)[C@H]2OCC(=O)[C@H]21)C1CCCCC1)c1ccc(-c2cccnn2)o1 [Example 20, N-((S)-2-((3aS,6S,6aS)-6-chloro-3-oxotetrahydro-2H-furo[3,2-b]pyrrol-4(5H)-yl)-1-cyclohexyl-2-oxoethyl)-5-(pyridazin-3-yl)furan-2-carboxamide]
- inhibition at 31.6 µM (human cathepsin L (CatL)): 16%
- pKi (human cathepsin K (CatK)): 6.65
- Selectivity Ki(hCatS)/Ki(hCatK) (human cathepsin S (CatS)): 3.2
- pKi (human cathepsin S (CatS)): 6.14

Structure (SMILES): Cc1nc(-c2cnccn2)sc1C(=O)N[C@H](C(=O)N1C[C@H](Cl)[C@H]2OCC(=O)[C@H]21)C1CCCCC1 [Example 22, N-((S)-2-((3aS,6S,6aS)-6-chloro-3-oxotetrahydro-2H-furo[3,2-b]pyrrol-4(5H)-yl)-1-cyclohexyl-2-oxoethyl)-4-methyl-2-(pyrazin-2-yl)thiazole-5-carboxamide]
- inhibition at 31.6 µM (human cathepsin L (CatL)): 17%
- pKi (human cathepsin K (CatK)): 7.43
- inhibition at 10 µM (human cathepsin S (CatS)): 73%

Structure (SMILES): O=C(N[C@H](C(=O)N1C[C@H](Cl)[C@H]2OCC(=O)[C@H]21)C1CCCCC1)c1sc(-c2cccnc2)nc1C(F)(F)F [Example 23, N-((S)-2-((3aS,6S,6aS)-6-chloro-3-oxotetrahydro-2H-furo[3,2-b]pyrrol-4(5H)-yl)-1-cyclohexyl-2-oxoethyl)-2-(pyridin-3-yl)-4-(trifluoromethyl)thiazole-5-carboxamide]
- inhibition at 31.6 µM (human cathepsin L (CatL)): 0%
- inhibition at 10 µM (human cathepsin K (CatK); read-out: hCatK, inhibition [%] at 10 μM): 52%
- inhibition at 10 µM (human cathepsin S (CatS)): 60%

Structure (SMILES): O=C(N[C@H](C(=O)N1C[C@H](Cl)[C@H]2OCC(=O)[C@H]21)C1CCCCC1)c1ncc(-c2cncnc2)s1 [Example 24, N-((S)-2-((3aS,6S,6aS)-6-chloro-3-oxotetrahydro-2H-furo[3,2-b]pyrrol-4(5H)-yl)-1-cyclohexyl-2-oxoethyl)-5-(pyrimidin-5-yl)thiazole-2-carboxamide]
- inhibition at 31.6 µM (human cathepsin L (CatL)): 10%
- pKi (human cathepsin K (CatK)): 7.66
- Selectivity Ki(hCatS)/Ki(hCatK) (human cathepsin S (CatS)): 2.8
- pKi (human cathepsin S (CatS)): 7.21

Structure (SMILES): O=C(N[C@H](C(=O)N1C[C@H](Cl)[C@H]2OCC(=O)[C@H]21)C1CCCCC1)c1ccc(-c2cnccn2)o1 [Example 25, N-((S)-2-((3aS,6S,6aS)-6-chloro-3-oxotetrahydro-2H-furo[3,2-b]pyrrol-4(5H)-yl)-1-cyclohexyl-2-oxoethyl)-5-(pyrazin-2-yl)furan-2-carboxamide]
- inhibition at 31.6 µM (human cathepsin L (CatL)): 20%
- pKi (human cathepsin K (CatK)): 6.82
- Selectivity Ki(hCatS)/Ki(hCatK) (human cathepsin S (CatS)): 5.4
- pKi (human cathepsin S (CatS)): 6.08

Structure (SMILES): O=C(N[C@H](C(=O)N1C[C@H](Cl)[C@H]2OCC(=O)[C@H]21)C1CCCCC1)c1ncc(-c2ccncn2)s1 [Example 26, N-((S)-2-((3aS,6S,6aS)-6-chloro-3-oxotetrahydro-2H-furo[3,2-b]pyrrol-4(5H)-yl)-1-cyclohexyl-2-oxoethyl)-5-(pyrimidin-4-yl)thiazole-2-carboxamide]
- inhibition at 31.6 µM (human cathepsin L (CatL)): 32%
- pKi (human cathepsin K (CatK)): 7.32
- Selectivity Ki(hCatS)/Ki(hCatK) (human cathepsin S (CatS)): 4.6
- pKi (human cathepsin S (CatS)): 6.66

Structure (SMILES): Cc1ncc(-c2ccc(C(=O)N[C@H](C(=O)N3C[C@H](Cl)[C@H]4OCC(=O)[C@H]43)C3CCCCC3)s2)cn1 [Example 30, N-((S)-2-((3aS,6S,6aS)-6-chloro-3-oxotetrahydro-2H-furo[3,2-b]pyrrol-4(5H)-yl)-1-cyclohexyl-2-oxoethyl)-5-(2-methylpyrimidin-5-yl)thiophene-2-carboxamide]
- inhibition at 31.6 µM (human cathepsin L (CatL)): 28%
- pKi (human cathepsin K (CatK)): 8.00
- Selectivity Ki(hCatS)/Ki(hCatK) (human cathepsin S (CatS)): 7.2
- pKi (human cathepsin S (CatS)): 7.14

Structure (SMILES): O=C(N[C@H](C(=O)N1C[C@H](Cl)[C@H]2OCC(=O)[C@H]21)C1CCCCC1)c1ccc(-c2ccncc2F)s1 [Example 31, N-((S)-2-((3aS,6S,6aS)-6-chloro-3-oxotetrahydro-2H-furo[3,2-b]pyrrol-4(5H)-yl)-1-cyclohexyl-2-oxoethyl)-5-(3-fluoropyridin-4-yl)thiophene-2-carboxamide]
- inhibition at 31.6 µM (human cathepsin L (CatL)): 14%
- pKi (human cathepsin K (CatK)): 8.30
- Selectivity Ki(hCatS)/Ki(hCatK) (human cathepsin S (CatS)): 88.0
- pKi (human cathepsin S (CatS)): 6.36

Structure (SMILES): Cc1nccc(-c2cnc(C(=O)N[C@H](C(=O)N3C[C@H](Cl)[C@H]4OCC(=O)[C@H]43)C3CCCCC3)s2)n1 [Example 32, N-((S)-2-((3aS,6S,6aS)-6-chloro-3-oxotetrahydro-2H-furo[3,2-b]pyrrol-4(5H)-yl)-1-cyclohexyl-2-oxoethyl)-5-(2-methylpyrimidin-4-yl)thiazole-2-carboxamide]
- inhibition at 31.6 µM (human cathepsin L (CatL)): 22%
- pKi (human cathepsin K (CatK)): 7.70
- Selectivity Ki(hCatS)/Ki(hCatK) (human cathepsin S (CatS)): 15.9
- pKi (human cathepsin S (CatS)): 6.50

Structure (SMILES): Cc1cc(-c2ccc(C(=O)N[C@H](C(=O)N3C[C@H](Cl)[C@H]4OCC(=O)[C@H]43)C3CCCCC3)s2)ccn1 [Example 33, N-((S)-2-((3aS,6S,6aS)-6-chloro-3-oxotetrahydro-2H-furo[3,2-b]pyrrol-4(5H)-yl)-1-cyclohexyl-2-oxoethyl)-5-(2-methylpyridin-4-yl)thiophene-2-carboxamide]
- inhibition at 31.6 µM (human cathepsin L (CatL)): 12%
- pKi (human cathepsin K (CatK)): 8.40
- Selectivity Ki(hCatS)/Ki(hCatK) (human cathepsin S (CatS)): 21.5
- pKi (human cathepsin S (CatS)): 7.07

Structure (SMILES): Cc1ccc(-c2ccc(C(=O)N[C@H](C(=O)N3C[C@H](Cl)[C@H]4OCC(=O)[C@H]43)C3CCCCC3)s2)nn1 [Example 35, N-((S)-2-((3aS,6S,6aS)-6-chloro-3-oxotetrahydro-2H-furo[3,2-b]pyrrol-4(5H)-yl)-1-cyclohexyl-2-oxoethyl)-5-(6-methylpyridazin-3-yl)thiophene-2-carboxamide]
- inhibition at 31.6 µM (human cathepsin L (CatL)): 23%
- pKi (human cathepsin K (CatK)): 7.80
- Selectivity Ki(hCatS)/Ki(hCatK) (human cathepsin S (CatS)): 10.7
- pKi (human cathepsin S (CatS)): 6.76

Structure (SMILES): O=C(N[C@H](C(=O)N1C[C@H](Cl)[C@H]2OCC(=O)[C@H]21)C1CCCCC1)c1ccc(-c2ncncc2F)s1 [Example 36, N-((S)-2-((3aS,6S,6aS)-6-chloro-3-oxotetrahydro-2H-furo[3,2-b]pyrrol-4(5H)-yl)-1-cyclohexyl-2-oxoethyl)-5-(5-fluoropyrimidin-4-yl)thiophene-2-carboxamide]
- inhibition at 31.6 µM (human cathepsin L (CatL)): 9%
- pKi (human cathepsin K (CatK)): 7.66
- Selectivity Ki(hCatS)/Ki(hCatK) (human cathepsin S (CatS)): 21.3
- pKi (human cathepsin S (CatS)): 6.33
